Measurements from patent publication US10077243B2, “Compounds for treating disorders mediated by metabotropic glutamate receptor 5, and methods of use thereof” (Sunovion Pharmaceuticals Inc., priority 2009, dated 2018).

target: T1, human mGluR5 (Homo sapiens, UniProt P41594); test: In vitro cell-based FLIPR calcium assay for positive modulation of the activation of mGluR5 by glutamate (PAM EC50); settings: HEK293/GLAST cells expressing recombinant human mGluR5; FLIPR calcium signal; glutamate added at its EC20; read-out: mGluR5 PAM EC50
T1 construct: expressed in transfected cells; host or cells: HEK293 cells stably expressing rat GLAST (EAAT1), stably transfected with pcDNAzeo3.1 carrying synthetic human mGluR5 DNA; zeocin-selected single clones
Excerpt: The DNA sequences encoding the structural regions for rat mGluR5 [Abe T, Sugihara H, Nawa H, Shigemoto R, Mizuno N, Nakanishi S (1992) “Molecular characterization of a novel metabotropic glutamate receptor mGluR5 coupled to inositol phosphate/Ca^2+ signal transduction” Journal of Biological Chemistry vol. 267, no. 19, pp. 13361-8] and human mGluR5 [Daggett L P, Sacaan A I, Akong M, Rao S P, Hess S D, Liaw C, Urrutia A, Jachec C, Ellis S B, Dreessen J, Knöpfel T, Landwehrmeyer G B, Testa C M, Young A B, Varney M, Johnson E C, Veliçelebi (1995) “Molecular and functional characterization of recombinant human metabotropic glutamate receptor subtype 5” Neuropharmacology vol. 34, no. […] 53, no. 3, pp. 355-369] was obtained from Dr. Michael Robinson of the Children's Hospital of Philadelphia under a Material Transfer Agreement. The pcDNAzeo3.1 vector DNA, carrying either rat mGluR5 or human mGluR5, was used to transfect a sample of the HEK293/GLAST cells, and single clones that express mGluR5 were isolated from the transfected cells using zeocin selection. Expression of mGluR5 was assessed by measurement of the transient fluorescence signal elicited from HEK293/GLAST/mGluR5 cells by glutamate following the loading of the cells with a calcium-sensitive dye using a FLIPR Tetra (Fluorometric Imaging Plate Reader) (Molecular Devices, Sunnyvale, Calif.) [O'Brien J A, Lemaire W, Chen T B, Chang R S, Jacobson M A, Ha S N, Lindsley C W, Schaffhauser H J, Sur C, Pettibone D J, Conn P J, Williams D L Jr. […] 64, no. 3, pp. 731-740; Assay Guidance Manual Version 5.0, 2008, Eli Lilly and Company and NIH Chemical Genomics Center; available online HEK293/GLAST/mGluR5 cells were grown in Dulbecco's Modified Eagle Medium (DMEM) supplemented with 10% dialyzed fetal bovine serum, 20 millimolar (mM) N-2-hydroxyethylpiperazine-N′-2-ethanesulfonic acid (HEPES), penicillin, streptomycin, 1% GlutaMax™ (Invitrogen) and 50 μg/ml zeocin. Cells were grown in the media to 70-80% confluency at 37° C. under 5% CO2, 95% humidity in poly-D-lysine coated coated flasks. Cells for assays were plated into 96-well sterile standard microtiter plates (pre-coated with poly-D-lysine) at a density of 50,000 cells per well in 0.2 milliliters of media. Plated cells were allowed to settle and adhere for 30 minutes at ambient conditions, and then were incubated overnight at 37° C. under 5% CO2, 95% humidity. Several such 96-well plates were typically prepared. On the day of the assays, the components of the FLIPR calcium 4 assay kit (Molecular Devices) were dissolved according to the instructions of the dye kit's manufacturer in assay buffer (Hank's balanced salt solution (HBSS) (Gibco) supplemented with 20 mM HEPES). After removal of the growth media from the first plate, cells were loaded with calcium dye by addition of calcium dye solution (50 microliters per well) and incubation at 25° C. for 45 to 60 minutes. The first plate was placed into the FLIPR Tetra, and a dilution series of glutamate solutions in assay buffer were added to wells on the plate, followed by acquisition of fluorescence data for several minutes. The fluorescence data (maximal signal as a 4-parameter sigmoidal function of log [glutamate]) were processed by non-linear regression methods using the software package GraphPad Prism 5.01 (GraphPad Software Inc.), to yield a glutamate concentration-response curve (CRC). […] These values were, respectively, the concentrations of glutamate that elicit 20%, 50%, and 80% of the maximal FLIPR signal (observed at saturating [glutamate]). The method for measuring the concentration response of a potentiator, or positive allosteric modulator (PAM), is described here as an example. For that purpose, subsequent assays were typically performed using assay buffer containing a glutamate concentration equal to that day's EC20. […] Addition to certain wells of the same buffer containing 0.3% DMSO, but without any test compound, provided a negative control.

T1 sequence (P41594 21-1212): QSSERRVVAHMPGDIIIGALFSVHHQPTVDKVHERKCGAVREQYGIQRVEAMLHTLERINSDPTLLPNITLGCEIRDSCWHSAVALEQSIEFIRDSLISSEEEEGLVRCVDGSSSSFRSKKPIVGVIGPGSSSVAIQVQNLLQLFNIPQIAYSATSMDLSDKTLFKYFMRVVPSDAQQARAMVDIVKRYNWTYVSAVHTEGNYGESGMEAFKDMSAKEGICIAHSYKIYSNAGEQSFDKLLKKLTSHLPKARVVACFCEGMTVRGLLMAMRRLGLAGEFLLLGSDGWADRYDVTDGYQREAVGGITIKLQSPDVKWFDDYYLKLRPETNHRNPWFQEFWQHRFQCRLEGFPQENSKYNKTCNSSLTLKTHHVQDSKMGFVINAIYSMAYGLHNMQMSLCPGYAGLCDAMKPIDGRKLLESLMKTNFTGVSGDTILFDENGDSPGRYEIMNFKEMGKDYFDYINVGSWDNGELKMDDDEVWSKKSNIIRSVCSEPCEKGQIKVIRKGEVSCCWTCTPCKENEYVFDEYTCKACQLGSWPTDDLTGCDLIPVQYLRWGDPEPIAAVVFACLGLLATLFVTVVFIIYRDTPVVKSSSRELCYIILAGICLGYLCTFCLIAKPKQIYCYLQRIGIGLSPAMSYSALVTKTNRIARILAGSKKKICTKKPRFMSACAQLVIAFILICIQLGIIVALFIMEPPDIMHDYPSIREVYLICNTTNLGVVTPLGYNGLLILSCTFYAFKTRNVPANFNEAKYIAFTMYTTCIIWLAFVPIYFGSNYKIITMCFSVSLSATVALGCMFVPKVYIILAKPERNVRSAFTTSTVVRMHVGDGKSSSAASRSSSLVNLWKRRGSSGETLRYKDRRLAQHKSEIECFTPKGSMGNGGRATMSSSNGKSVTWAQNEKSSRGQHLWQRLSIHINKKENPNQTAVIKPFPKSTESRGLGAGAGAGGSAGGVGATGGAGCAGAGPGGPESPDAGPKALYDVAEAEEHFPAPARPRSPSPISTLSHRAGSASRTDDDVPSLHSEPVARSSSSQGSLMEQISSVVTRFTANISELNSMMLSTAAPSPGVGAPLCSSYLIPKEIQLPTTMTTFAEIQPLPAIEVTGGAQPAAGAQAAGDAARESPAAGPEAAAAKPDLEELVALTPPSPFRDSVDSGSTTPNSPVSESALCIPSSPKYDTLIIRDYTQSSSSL

Structure (SMILES) | EC50
CC1(C)CCc2nc3cc(C#Cc4ccccn4)cnc3c(=O)n2C1 [Example 11.5, 8,8-dimethyl-3-(pyridin-2-ylethynyl)-8,9-dihydro-6H-dipyrido[1,2-a:3′,2′-d]pyrimidin-11(7H)-one] | 0.1 to 0.3 µM
CCC1CCCn2c1nc1cc(C#Cc3cccc(F)c3)ccc1c2=O (centres unmarked) [Example 4.8, 6-ethyl-3-((3-fluorophenyl)ethynyl)-8,9-dihydro-6H-pyrido[2,1-b]quinazolin-11(7H)-one] | 0.1 to 0.3 µM
O=c1c2ccc(C#Cc3nccs3)cc2nc2n1CCC1(CC2)OCCO1 [Example 7.60] | 0.3 to 1 µM
O=c1c2ccc(C#Cc3cccc(Cl)c3)cc2nc2n1CCC1(CC2)OCCO1 [Example 7.8] | 0.3 to 1 µM
O=C(Cc1ccccc1)c1ccc2c(=O)n3c(nc2c1)CCCCC3 [Example 21.3, 3-(2-phenylacetyl)-7,8,9,10-tetrahydroazepino[2,1-b]quinazolin-12(6H)-one] | 0.1 to 0.3 µM
CC1(O)CCc2nc3cc(C#Cc4ccccn4)ccc3c(=O)n2C1 (centres unmarked) [Example 4.45, 8-hydroxy-8-methyl-3-(pyridin-2-ylethynyl)-8,9-dihydro-6H-pyrido[2,1-b]quinazolin-11(7H)-one] | 0.1 to 0.3 µM
O=C(Nc1ccc(F)cc1)c1ccc2c(c1)N=C1CCCCCCN1C2 [Example 26.1, N-(4-fluorophenyl)-7,8,9,10,11,13-hexahydro-6H-azocino[2,1-b]quinazoline-3-carboxamide] | 0.3 to 1 µM
CC1(C)CNc2nc3cc(C#Cc4ccccn4)ccc3c(=O)n2C1 [Example 5.26, 3,3-dimethyl-9-(pyridin-2-ylethynyl)-3,4-dihydro-1H-pyrimido[2,1-b]quinazolin-6(2H)-one] | < 0.01 µM
O=c1c2ccc(CCc3ccccc3)cc2nc2n1CCCCC2 [Example 21.1, 3-phenethyl-7,8,9,10-tetrahydroazepino[2,1-b]quinazolin-12(6H)-one] | 0.1 to 0.3 µM
CC1Cn2c(nc3cc(C#Cc4ccccn4)ccc3c2=O)CN1C (centres unmarked) [Example 5.14, 2,3-dimethyl-9-(pyridin-2-ylethynyl)-3,4-dihydro-1H-pyrazino[2,1-b]quinazolin-6(2H)-one] | 0.03 to 0.1 µM
O=c1c2ccc(C#Cc3ccccn3)cc2nc2n1CCC(C(F)(F)F)CC2 (centres unmarked) [Example 6.38, 3-(pyridin-2-ylethynyl)-8-(trifluoromethyl)-7,8,9,10-tetrahydroazepino[2,1-b]quinazolin-12(6H)-one] | 0.03 to 0.1 µM
O=c1c2ccc(C#Cc3cccc(F)c3)cc2ncn1CC1CC1 [Example 1.8, 3-(cyclopropylmethyl)-7-((3-fluorophenyl)ethynyl) quinazolin-4(3H)-one] | 0.03 to 0.1 µM
O=c1c2ccc(C#Cc3ccccn3)cc2nc2n1CCN1CCCC1C2 (centres unmarked) [Example 9.5, 11-(pyridin-2-ylethynyl)-2,3,5,6,14,14a-hexahydropyrrolo[1′,2′:4,5][1,4]diazepino[7,1-b]quinazolin-8(1H)-one] | 0.1 to 0.3 µM

Next, values leading:

EC50 | Structure (SMILES)
< 0.01 µM | CC1(C)Cc2nc3cc(C#Cc4ccccn4)ccc3c(=O)n2C1 [Example 3.20, 2,2-dimethyl-6-(pyridin-2-ylethynyl)-2,3-dihydropyrrolo[2,1-b]quinazolin-9(1H)-one]
0.03 to 0.1 µM | CC1(C)Cc2nc3cc(C#Cc4ccccn4)cnc3c(=O)n2C1 [Example 11.10, 7,7-dimethyl-3-(pyridin-2-ylethynyl)-7,8-dihydropyrido[3,2-d]pyrrolo[1,2-a]pyrimidin-10(6H)-one]
0.03 to 0.1 µM | O=c1c2ccc(C#Cc3ccc(F)cc3)cc2nc2n1CCC1(CC2)OCCO1 [Example 7.3]
0.01 to 0.03 µM | CC1CCCCn2c1nc1cc(C#Cc3ccccn3)ccc1c2=O (centres unmarked) [Example 6.35, 6-methyl-3-(pyridin-2-ylethynyl)-7,8,9,10-tetrahydroazepino[2,1-b]quinazolin-12(6H)-one]
0.03 to 0.1 µM | O=c1c2ccc(C#Cc3cccc(F)c3)cc2nc2n1CC/C(=N\O)CC2 [Example 6.23, 3-((3-fluorophenyl)ethynyl)-8-(hydroxyimino)-7,8,9,10-tetrahydroazepino[2,1-b]quinazolin-12(6H)-one]
0.03 to 0.1 µM | C#CCN1CCc2nc3cc(C#Cc4ccccn4)ccc3c(=O)n2CC1 [Example 8.22, 3-(prop-2-yn-1-yl)-8-(pyridin-2-ylethynyl)-2,3,4,5-tetrahydro-[1,4]diazepino[7,1-b]quinazolin-11(1H)-one]
0.03 to 0.1 µM | O=c1c2ccc(C#Cc3cccs3)cc2nc2n1CCC1(CC2)OCCO1 [Example 7.57]
< 0.01 µM | C=C1CCc2nc3cc(C#Cc4cccc(F)c4)ccc3c(=O)n2CC1 [Example 6.22, 3-((3-fluorophenyl)ethynyl)-8-methylene-7,8,9,10-tetrahydroazepino[2,1-b]quinazolin-12(6H)-one]
0.03 to 0.1 µM | CC12CCCN1Cc1nc3cc(C#Cc4ccccn4)ccc3c(=O)n1C2 (centres unmarked) [Example 4.49, 13a-methyl-8-(pyridin-2-ylethynyl)-2,3,13,13a-tetrahydro-1H-pyrrolo[1′,2′:4,5]pyrazino[2,1-b]quinazolin-11 (5H)-one]
< 0.01 µM | CCC1CCc2nc3cc(C#Cc4ccc(F)cc4)ccc3c(=O)n2CC1 (centres unmarked) [Example 6.12, 8-ethyl-3-((4-fluorophenyl)ethynyl)-7,8,9,10-tetrahydroazepino[2,1-b]quinazolin-12(6H)-one]
0.01 to 0.03 µM | O=c1c2ccc(C#Cc3ccccc3)cc2nc2n1CCC1(CC2)OCCO1 [Example 7.1]
0.01 to 0.03 µM | C=CCC1CCCCc2nc3cc(C#Cc4ccc(F)cc4)ccc3c(=O)n21 (centres unmarked) [Example 6.33, 10-allyl-3-((4-fluorophenyl)ethynyl)-7,8,9,10-tetrahydroazepino[2,1-b]quinazolin-12(6H)-one]
< 0.01 µM | O=c1c2ccc(C#Cc3ccc(F)cc3)cc2nc2n1CCCC2 [Example 4.5, 3-((4-fluorophenyl)ethynyl)-8,9-dihydro-6H-pyrido[2,1-b]quinazolin-11(7H)-one]
0.01 to 0.03 µM | N#CCN1CCc2nc3cc(C#Cc4cccc(F)c4)ccc3c(=O)n2CC1 [Example 8.14, 2-(8-((3-fluorophenyl)ethynyl)-11-oxo-1,2,4,5-tetrahyrdro-[1,4]diazepino[7,1-b]quinazolin-3(11H)-yl)acetonitrile]
< 0.01 µM | CC1(F)CCc2nc3cc(C#Cc4ccccn4)ccc3c(=O)n2CC1 (single isomer, unassigned) [Example 6.48a/6.48b faster moving enantiomer (fraction 1), 8-fluoro-8-methyl-3-(pyridin-2-ylethynyl)-7,8,9,10-tetrahydroazepino[2,1-b]quinazolin-12(6H)-one]
0.01 to 0.03 µM | O=c1c2ccc(C#Cc3ccncc3)cc2nc2n1CCC1(CC2)OCCO1 [Example 7.12]
0.01 to 0.03 µM | Cc1noc(C)c1C#Cc1ccc2c(=O)n3c(nc2c1)CCC1(CC3)OCCO1 [Example 7.67]
0.01 to 0.03 µM | COCCc1cnc2cc(C#Cc3ccc(F)cc3)ccn2c1=O [Example 13.11, 8-((4-fluorophenyl)ethynyl)-3-(2-methoxyethyl)-4H-pyrido[1,2-a]pyrimidin-4-one]

same assay, conditions: mGluR5 PAM EC50, HEK293/GLAST cells expressing recombinant human mGluR5; FLIPR calcium signal; glutamate added at its EC20

Structure (SMILES) | EC50
CC1(C)CCc2nc3cc(C#Cc4ccccn4)ccn3c(=O)c2C1 [Example 15.4, 2,2-dimethyl-7-(pyridin-2-ylethynyl)-3,4-dihydro-1H-Pyrido[2,1-b]quinazolin-11(2H)-one] | < 0.01 µM
